Results published in patent publication US11859014B2, “Peptidomimetics for the treatment of Norovirus infection” (EMORY UNIVERSITY, priority 2016, dated 2024).

Tests used:
[1] = Cellular toxicity assay in CEM cells; type: cell-based; details: human, read-out: Cytotoxicity, CC50 (μM) CEM
Procedure: (§1) The toxicity of the compounds was assessed in Vero, human PBM, CEM (human lymphoblastoid), MT-2, and HepG2 cells, as described previously (see Schinazi R. F., Sommadossi J.-P., Saalmann V., Cannon D. L., Xie M.-Y., Hart G. C., Smith G. A. & Hahn E. F. Antimicrob. Agents Chemother. 1990, 34, 1061-67). Cycloheximide was included as positive cytotoxic control, and untreated cells exposed to solvent were included as negative controls. The cytotoxicity CC50 was obtained from the concentration-response curve using the median effective method described previously (see Chou T.-C. & Talalay P. Adv. Enzyme Regul. 1984, 22, 27-55; Belen'kii M. S. & Schinazi R. F. Antiviral Res. 1994, 25, 1-11).

[2] = Cellular toxicity assay in PBM cells; type: cell-based; details: human, read-out: Cytotoxicity, CC50 (μM) PBM
Procedure: as §1

[3] = Cellular toxicity assay in Vero cells; type: cell-based; details: African green monkey, read-out: Cytotoxicity, CC50 (μM) VERO
Procedure: as §1

[4] = tested on: NoV replicon RNA in HG23 cells (derived from Huh-7 cells); assay: Norwalk virus replicon assay in HG23 cells; type: cell-based; details: 120 h, five days incubation; for EC50: read-out: Anti-NoV activity (μM) EC50; for EC90: read-out: Anti-NoV activity (μM) EC90
Procedure: Norwalk virus replicon assays were performed as reported by Constantini et al. (Antivir Ther 2012, 17, 981-991). HG23 cells (derived from Huh-7 cells) containing NoV replicon RNA are seeded at a density of 3,000 cells/well in 96-well plates and incubated at 37° C. and 5% CO2 overnight. Compounds were tested at concentrations ranging from 0.1 to 100 μM. Compounds were added in triplicate to 80 to 90% confluent monolayers and incubated at 37° C. and 5% CO2. Untreated cells were included in each plate. Following five days incubation (37° C., 5% CO2), total cellular RNA was isolated with RNeasy96 extraction kit from Qiagen. Replicon RNA and an internal control (TaqMan rRNA control reagents, Applied Biosystems) were amplified in a single step.
The median effective concentrations (EC50) ranges of several of the compounds described herein against NoV are shown in Table 3: […]

[5] = Cellular toxicity assay in Huh7 cells; type: cell-based; details: human, read-out: Cytotoxicity, CC50 (μM) Huh7
Procedure: [The procedure below names another cell line; the source lists this cell line under the same test.] as §1

[6] = biological target: Norovirus GI.1 (Norwalk virus) protease (Norovirus (strain Human/NoV/United States/Norwalk/1968/GI) (Hu/NV/NV/1968/US), UniProt Q83883); assay: FRET based enzyme assay, Norovirus GI.1 protease; type: biochemical; details: 37° C.
Sequence of Norovirus GI.1 (Norwalk virus) protease (Q83883 1101-1281): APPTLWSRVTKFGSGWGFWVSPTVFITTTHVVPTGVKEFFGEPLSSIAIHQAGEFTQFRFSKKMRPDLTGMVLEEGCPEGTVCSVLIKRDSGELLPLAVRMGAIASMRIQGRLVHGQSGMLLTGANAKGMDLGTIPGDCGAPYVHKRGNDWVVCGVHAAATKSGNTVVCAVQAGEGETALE
Procedure: Norovirus GI.1 (Norwalk virus) protease were tested for enzymatic activity using a fluorescence resonance energy transfer (FRET) based enzyme assay. Norovirus GI.1 represents 5 to 10% of the clinical isolates. The FRET kinetic enzyme assays were performed as follows. The purified viral protease was diluted in reaction buffer (50 mM HEPES, pH 8.0, 120 mM NaCl, 0.4 mM EDTA, 20% glycerol, and 4 mM DTT) to a final concentration of 128 nM. Each reaction was initiated by addition of FRET substrate [(HiLyte Fluor 488) -[…]-(QXL520)]. To determine kinetic parameters, the FRET substrate was serially diluted to final concentrations of 100 μM to 49 nM and added to the reaction. The final reaction volume was 100 μL. The fluorescence emitted by substrate cleavage was monitored by a microplate reader (SpectraMax M5, Molecular Devices, Sunnyvale, CA, USA) at a 488 nm excitation wavelength with an emission wavelength of 520 nm. Readings were taken every minute for 20 minutes, and the reactions were performed at 37° C. In order to convert RFU into μM, a standard curve was created by measuring fluorescence of free HiLyte Fluor 488, which was serially diluted from 250 nM to 3.9 nM. All data were plotted and analyzed with GraphPad Prism v. 6.07.

[7] = biological target: Minerva virus protease (Norovirus GII.4 (Minerva virus), UniProt P54634); assay: FRET enzyme kinetic assay, NoV GII.4 Minerva virus protease; type: biochemical; details: Minerva virus (GII.4) protease; inhibitor incubated with enzyme 90 minutes at 37° C. before FRET substrate
Sequence of Minerva virus protease (P54634 whole entry, looked up): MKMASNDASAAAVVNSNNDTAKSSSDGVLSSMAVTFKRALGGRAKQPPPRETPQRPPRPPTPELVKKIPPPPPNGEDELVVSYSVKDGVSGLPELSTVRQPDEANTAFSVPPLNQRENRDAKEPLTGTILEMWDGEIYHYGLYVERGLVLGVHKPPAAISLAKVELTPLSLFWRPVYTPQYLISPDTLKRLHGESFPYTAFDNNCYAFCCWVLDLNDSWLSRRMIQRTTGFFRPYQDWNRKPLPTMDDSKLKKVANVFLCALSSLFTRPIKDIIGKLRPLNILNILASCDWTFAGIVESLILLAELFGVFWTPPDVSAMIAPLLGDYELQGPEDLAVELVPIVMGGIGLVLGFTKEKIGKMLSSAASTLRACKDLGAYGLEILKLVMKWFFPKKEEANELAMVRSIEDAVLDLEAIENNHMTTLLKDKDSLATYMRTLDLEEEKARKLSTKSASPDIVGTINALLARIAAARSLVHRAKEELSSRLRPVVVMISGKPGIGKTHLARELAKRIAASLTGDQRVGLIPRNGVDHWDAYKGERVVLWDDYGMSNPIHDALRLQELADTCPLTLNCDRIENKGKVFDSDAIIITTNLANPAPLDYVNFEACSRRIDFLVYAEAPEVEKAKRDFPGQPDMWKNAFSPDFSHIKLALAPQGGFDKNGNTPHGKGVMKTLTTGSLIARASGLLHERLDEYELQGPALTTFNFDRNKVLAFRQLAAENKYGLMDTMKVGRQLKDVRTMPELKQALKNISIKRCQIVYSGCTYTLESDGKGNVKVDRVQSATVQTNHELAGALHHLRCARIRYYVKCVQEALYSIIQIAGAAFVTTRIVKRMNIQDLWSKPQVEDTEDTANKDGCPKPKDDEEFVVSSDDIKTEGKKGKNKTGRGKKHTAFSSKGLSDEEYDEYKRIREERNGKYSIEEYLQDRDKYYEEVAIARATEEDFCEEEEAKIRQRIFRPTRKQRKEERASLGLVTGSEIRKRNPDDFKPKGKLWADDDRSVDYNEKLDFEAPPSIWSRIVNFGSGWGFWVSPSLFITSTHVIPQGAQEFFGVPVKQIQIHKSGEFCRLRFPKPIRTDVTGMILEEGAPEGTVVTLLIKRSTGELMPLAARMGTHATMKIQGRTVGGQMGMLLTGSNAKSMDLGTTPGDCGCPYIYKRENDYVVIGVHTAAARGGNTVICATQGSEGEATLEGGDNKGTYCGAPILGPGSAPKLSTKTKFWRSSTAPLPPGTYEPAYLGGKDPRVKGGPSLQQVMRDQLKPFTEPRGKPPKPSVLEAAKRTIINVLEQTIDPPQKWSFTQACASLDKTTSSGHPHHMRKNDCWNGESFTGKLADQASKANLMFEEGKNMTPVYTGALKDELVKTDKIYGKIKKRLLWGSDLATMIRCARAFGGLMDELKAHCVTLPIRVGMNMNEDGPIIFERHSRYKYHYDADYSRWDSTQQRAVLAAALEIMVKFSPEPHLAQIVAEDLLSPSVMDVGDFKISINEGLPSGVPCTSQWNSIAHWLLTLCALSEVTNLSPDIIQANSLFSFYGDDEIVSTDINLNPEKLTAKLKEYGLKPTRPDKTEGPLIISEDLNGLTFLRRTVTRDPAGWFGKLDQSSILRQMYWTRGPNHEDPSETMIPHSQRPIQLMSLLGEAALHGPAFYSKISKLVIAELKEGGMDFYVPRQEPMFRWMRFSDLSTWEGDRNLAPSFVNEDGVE
Procedure: The ability of these compounds to inhibit the NoV, specifically Minerva virus protease catalytic Cys139 covalently (IC50 and Ki) was determined with an enzyme kinetic assay. NoV strains, specifically GII.4 such as the Minerva virus are responsible for causing the majority (˜80%) of infections in humans. The activity of the inhibitors was evaluated by monitoring the cleavage of a FRET substrate every one minute for 20 minutes (excitation/emission: 488/520 nm) using a SpectraMax M5 microplate reader (Molecular Devices, Sunnyvale CA). Serial dilutions of each inhibitor were incubated with enzyme for 90 minutes at 37° C. before addition of the FRET substrate to ensure complete inactivation. Commercially available protease inhibitors chymostatin and rupintrivir were used as controls.

Compound: CC(C)C[C@H](NC(=O)[C@H](Cc1ccc(O)cc1)NC(=O)OCc1ccccc1)C(=O)N[C@H](C=O)C[C@@H]1CCCNC1=O [Compound 11, Benzyl ((S)-3-(4-hydroxyphenyl)-1-(((S)-4-methyl-1-oxo-1-(((S)-1-oxo-3-((S)-2-oxopiperidin-3-yl)propan-2-yl)amino)pentan-2-v)amino)-1-oxopropan-2-yl)carbamate]
- CC50 [1]: > 100 µM
- CC50 [2]: > 100 µM
- CC50 [3]: > 100 µM
- EC50 [4]: 0.7 µM
- EC90 [4]: 2.4 µM
- CC50 [5]: > 10 µM

Compound: CC(C)C[C@H](NC(=O)[C@H](Cc1cccc2ccccc12)NC(=O)OCc1ccccc1)C(=O)N[C@H](C=O)C[C@@H]1CCCNC1=O [Compound 19]
- CC50 [1]: 32 µM
- CC50 [2]: 24 µM
- CC50 [3]: 20 µM
- EC50 [4]: 0.07 µM
- EC90 [4]: 0.27 µM
- CC50 [5]: > 10 µM

Compound: CC(C)C[C@H](NC(=O)[C@H](Cc1cccc2ccccc12)NC(=O)c1cnccn1)C(=O)N[C@H](C=O)C[C@@H]1CCCNC1=O [Compound 23]
- CC50 [1]: 39 µM
- CC50 [2]: > 100 µM
- CC50 [3]: > 100 µM
- EC50 [4]: 0.07 µM
- EC90 [4]: 0.33 µM
- CC50 [5]: > 10 µM

Compound: CC(C)C[C@H](NC(=O)[C@H](Cc1cccc2ccccc12)NC(=O)c1cnccn1)C(=O)N[C@H](C=O)C[C@@H]1CCNC1=O [Compound 29]
- CC50 [1]: 38 µM
- CC50 [2]: > 100 µM
- CC50 [3]: > 100 µM
- EC50 [4]: 0.08 µM
- EC90 [4]: 0.46 µM
- CC50 [5]: > 10 µM

Compound: CC(C)C[C@H](NC(=O)[C@H](Cc1ccc(F)cc1)NC(=O)OCc1ccccc1)C(=O)N[C@H](C=O)C[C@@H]1CCCNC1=O [Compound 35, Benzyl ((S)-3-(4-fluorophenyl)-1-(((S)-4-methyl-1-oxo-1-(((S)-1-oxo-3-((S)-2-oxopiperidin-3-yl)propan-2-yl)amino)pentan-2-yl)amino)-1-oxopropan-2-yl)carbamate]
- CC50 ([1]; CEM lymphoblastoid cells): 35 µM
- CC50 [2]: 52 µM
- CC50 [3]: > 100 µM
- CC50 [5]: 60 µM
- IC50 [6]: 0.096 ± 0.011 µM
- Ki [6]: 0.465 ± 0.201 µM

Compound: CC(C)C[C@H](NC(=O)[C@H](Cc1cccc2ccccc12)NC(=O)OCc1ccccc1)C(=O)N[C@H](/C=C(\C#N)C(N)=O)C[C@@H]1CCCNC1=O [Compound 36, Benzyl ((S)-1-(((S)-1-(((S,E)-5-amino-4-cyano-5-oxo-1-((S)-2-oxopiperidin-3-yl)pent-3-en-2-yl)amino)-4-methyl-1-oxopentan-2-yl)amino)-3-(naphthalen-1-yl)-1-oxopropan-2-yl)carbamate]
- CC50 [1]: 9 µM
- CC50 [2]: 45 µM
- CC50 [3]: > 100 µM
- CC50 [5]: 8 µM
- IC50 [6]: 0.593 ± 0.124 µM
- Ki [6]: 1.7 ± 0.332 µM
- IC50 [7]: 1.17 ± 0.333 µM

Compound: CC(C)C[C@H](NC(=O)[C@H](Cc1cccc2ccccc12)NC(=O)OCc1ccccc1)C(=O)N[C@@H](C[C@@H]1CCCNC1=O)C(O)S(=O)(=O)O (stereo partly drawn) [Compound 37, Sodium (5S,8S,11S)-12-hydroxy-8-isobutyl-5-(naphthalen-1-ylmethyl)-3,6,9-trioxo-11-(((S)-2-oxopiperidin-3-yl)methyl)-1-phenyl-2-oxa-4,7,10-triazadodecane-12-sulfonate]
- CC50 [1]: 18 µM
- CC50 [2]: 44 µM
- CC50 [3]: > 100 µM
- CC50 [5]: 11 µM
- IC50 [6]: 0.654 ± 0.285 µM
- Ki [6]: 2.24 ± 0.438 µM
- IC50 [7]: 2.63 ± 1.04 µM

Compound: CC(C)C[C@H](NC(=O)[C@H](Cc1cccc2ccccc12)NC(=O)OCc1ccccc1)C(=O)N[C@@H](C[C@@H]1CCCNC1=O)C(O)C(F)(F)F (stereo partly drawn) [Compound 38, Benzyl ((2S)-1-(((2S)-4-methyl-1-oxo-1-(((2S)-4,4,4-trifluoro-3-hydroxy-1-((S)-2-oxopiperidin-3-yl)butan-2-yl)amino)pentan-2-yl)amino)-3-(naphthalen-1-yl)-1-oxopropan-2-yl)carbamate]
- CC50 ([1]; CEM lymphoblastoid cells): 6 µM
- CC50 [2]: 18 µM
- CC50 [3]: 22 µM
- CC50 [5]: 13 µM
- IC50 [6]: > 10 µM

Compound: CC(C)C[C@H](NC(=O)[C@H](Cc1cccc2ccccc12)NC(=O)OCc1ccccc1)C(=O)N[C@@H](C[C@@H]1CCCNC1=O)C(=O)C(F)(F)F [Compound 39, Benzyl ((S)-1-(((S)-4-methyl-1-oxo-1-(((S)-4,4,4-trifluoro-3-oxo-1-((S)-2-oxopiperidin-3-yl)butan-2-yl)amino)pentan-2-yl)amino)-3-(naphthalen-1-yl)-1-oxopropan-2-yl)carbamate]
- CC50 [1]: 2 µM
- CC50 [2]: 39 µM
- CC50 [3]: 11 µM
- CC50 [5]: 14 µM
- IC50 [6]: > 10 µM

Compound: CC(C)C[C@H](NC(=O)[C@H](Cc1cccc2ccccc12)NC(=O)OCc1ccccc1)C(=O)N[C@H](/C=C/C=O)C[C@@H]1CCNC1=O [Compound 64, Benzyl ((S)-1-(((S)-4-methyl-1-oxo-1-(((S,E)-5-oxo-1-((S)-2-oxopyrrolidin-3-yl)pent-3-en-2-yl)amino)pentan-2-yl)amino)-3-(naphthalen-1-yl)-1-oxopropan-2-yl)carbamate]
- IC50 [6]: 10 µM

Compound: CC(C)C[C@H](NC(=O)[C@H](Cc1cccc2ccccc12)NC(=O)OCc1ccccc1)C(=O)N[C@@H](C[C@@H]1CCNC1=O)C1OC1S(C)(=O)=O (stereo partly drawn) [Compound 67, Benzyl ((2S)-1-(((2S)-4-methyl-1-(((1S)-1-(3-(methylsulfonyl)oxiran-2-yl)-2-((S)-2-oxopyrrolidin-3-yl)ethyl)amino)-1-oxopentan-2-yl)amino)-3-(naphthalen-1-yl)-1-oxopropan-2-yl)carbamate]
- CC50 [1]: 64 µM
- CC50 [2]: > 100 µM
- CC50 [3]: > 100 µM
- EC50 [4]: 4.33 µM
- EC90 [4]: > 20 µM
- IC50 [6]: > 10 µM

Compound: O=C[C@H](C[C@@H]1CCCNC1=O)NC(=O)[C@H](Cc1ccccc1)NC(=O)[C@H](Cc1cccc2ccccc12)NC(=O)OCc1ccccc1 [Compound 83, Benzyl ((S)-3-(naphthalen-1-yl)-1-oxo-1-(((S)-1-oxo-1-(((S)-1-oxo-3-((S)-2-oxopiperidin-3-yl)propan-2-yl)amino)-3-phenylpropan-2-yl)amino)propan-2-yl)carbamate]
- CC50 ([1]; CEM lymphoblastoid cells): 17 µM
- CC50 [2]: 48.7 µM
- CC50 [3]: 41.2 µM
- EC50 [4]: 0.33 µM
- EC90 [4]: 0.91 µM
- IC50 [6]: 0.084 ± 0.019 µM
- Ki [6]: 0.256 ± 0.057 µM

Compound: O=C(N[C@@H](Cc1cccc2ccccc12)C(=O)N[C@@H](Cc1ccccc1)C(=O)N[C@H](CCl)C[C@@H]1CCCNC1=O)OCc1ccccc1 [Compound 84, Benzyl ((S)-1-(((S)-1-(((S)-1-chloro-3-((S)-2-oxopiperidin-3-yl)propan-2-yl)amino)-1-oxo-3-phenylpropan-2-yl)amino)-3-(naphthalen-1-yl)-1-oxopropan-2-yl)carbamate]
- CC50 ([1]; CEM lymphoblastoid cells): 26.6 µM
- CC50 [2]: 75 µM
- CC50 [3]: 51.7 µM
- EC50 [4]: > 10 µM
- IC50 [6]: > 100 µM
